pIC50: −log10 of the molar value.
Assays:
[1] = test system: ABC16-Monster S. cerevisiae; test: microbe, parasite or virus in culture; type: cell-based; details: Saccharomyces cerevisiae
Dd2 parasites = test: Artemisinin IC50 with proteasome inhibitor co-treatment, 72 h SYBR green assay; type: cell-based; details: Plasmodium falciparum
Method: Compound susceptibility was measured using the malaria SYBR green I-based fluorescence assay.[39] Asynchronous P. falciparum parasites (Dd2 strain) were cultured in standard conditions before being plated for the assays. Each compound was tested over 72 h in technical duplicates on a 12-point concentration curve prepared by 3-fold dilution from 6.7 μM to 0.11 nM. At least three independent experiments were carried out for IC50 determination. Artemisinin and chloroquine were used as controls. IC50 values were obtained using normalized fluorescence intensity from SYBR green I and analyzed via nonlinear variable slope four-parameter regression curve-fitting model in Prism 6 (GraphPad Software Inc.).

HepG2 cells = test: HepG2 cytotoxicity assay; type: cell-based, human; details: D-amino acid at P3; comparator not given

Q: Which results are given for CCCCCC(=O)N[C@H](C(=O)N[C@@H](CCS(C)(=O)=O)C(=O)N[C@@H](CC(C)C)C(=O)[C@@]1(C)CO1)C(C)C [Carmaphycin B, carmaphycin B]?
A: pIC50 ([1]; GM (parental ABC16-Monster strain), n=4): 4.61; pIC50 ([1]; resistant Lineage 1): < 3.82; pIC50 ([1]; resistant Lineage 2, n=4): 4.28; pIC50 ([1]; resistant Lineage 3): < 4.00

Q: What does the source list for C[C@@H]1CC[C@H]2[C@@H](C)C(=O)O[C@@H]3O[C@@]4(C)CC[C@@H]1[C@]32OO4 [artemisinin]?
A: pIC50 (Dd2 parasites; DD2, Art + 0.5 nM Analog 18, n = 2): 7.96; pIC50 (Dd2 parasites; DD2, Art + 0.5 nM CarB, n = 2): 7.87; pIC50 (Dd2 parasites; DD2, Art + 1.0 nM Analog 18, n = 2): 8.12; pIC50 (Dd2 parasites; DD2, Art + 1.0 nM CarB, n = 2): 8.15; pIC50 (Dd2 parasites; DD2, Art only, Figure 3B, mean ± SEM, n = 2): 7.63; pIC50 (Dd2 parasites; DD2, Art only, Figure 3C, mean ± SEM, n = 2): 7.72; pIC50 (Dd2 parasites; DD2, artemisinin alone, wild-type artemisinin-sensitive Dd2 parasites, span of both experiments): 7.63 to 7.72

Q: With CCCCCC(=O)N[C@H](Cc1c[nH]c2ccccc12)C(=O)N[C@@H](CCCC)C(=O)N[C@@H](CC(C)C)C(=O)[C@@]1(C)CO1 [analog 19] as the compound, how does the fold reduced toxicity (HepG2 cells) read?
A: The fold reduced toxicity was “up to 100 fold”.
